Test results reported in patent US20230045112A1, “DISULFIRAM AND OTHER REDOX-RELATED COMPOSITIONS FOR BRAIN TUMORS” (Texas Tech University System, priority 2014, published 2023).

What was measured:
[1] = target: T1, Cys145 of MGMT (Homo sapiens, UniProt P16455); assay: BG-PEG-biotin probe binding to MGMT; details: UW228 cell extracts, 20 minutes
T1 construct: hexa-histidine; made in house; host or cells: E. coli
T1 sequence (P16455 1-207): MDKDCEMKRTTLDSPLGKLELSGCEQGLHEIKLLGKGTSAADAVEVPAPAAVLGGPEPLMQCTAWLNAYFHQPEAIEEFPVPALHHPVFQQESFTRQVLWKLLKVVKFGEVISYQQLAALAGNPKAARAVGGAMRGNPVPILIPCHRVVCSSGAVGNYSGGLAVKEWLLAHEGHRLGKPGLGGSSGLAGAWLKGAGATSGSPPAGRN
Procedure: Drug treatments and exposure times are shown in labels. […] Cells were trypsinized at times shown. Levels of MGMT activity and protein were determined in cell extracts. […] BG-PEG-biotin (5 μM) was then added and incubations continued for 15 minutes. The samples were electrophoresed, blotted and probed with Streptavidin-HRP to detect the protein-bound biotin (upper panel). […] Streptavidin-HRP was used to probe the resulting blot (upper panel).
MGMT protein and activity levels were analyzed during the depletion and repletion (FIG. 3B). […] MGMT protein levels as determined by western analyses during the depletion/repletion cycle were consistent with and fully reflected the DNA repair activity profiles (FIG. 3B, left panel).

[2] = tested on: NQO1-proficient A549 tumors; assay: NIR imaging of NQO1-proficient tumors in live mice; assay type: in vivo, nude mice; details: one mg/kg intravenously
From the text: (§1) Engineering of NQO1 turn-on near-infrared (NIR) fluorophores and theranostic drugs thereof for pediatric brain cancer therapy and multimodality imaging. There is an imperative need for the development of cancer-specific imaging and therapeutic multifunctional or theranostic agents that can allow both imaging and drug delivery. Imaging in the near-infrared (NIR) range of 650-900 nm has been widely used in clinical procedures, because of deep tissue penetration, low autofluorescence, and reduced photon scattering. The inventors developed enzyme-activatable, cell-permeable, non-toxic, and biocompatible ‘turn-on’ NIR fluorescent probes (NIR-ASM, NQ-DCP) that provide accurate detection and visualization of endogenous NQO1 activity both in vitro and an in vivo preclinical model of lung and brain cancers. These fluorophores remain non-fluorescent until cleavage by NQO1 catalysis. In this study, subcutaneous tumors of A549 lung cancer (NQO1-positive) and MDAMB-231 breast cancer (NQO1 negative) were developed in the same animal on opposite flanks.
(§2) The animals were imaged in a IVIS imager at 500-640 nm.

[3] = tested on: NQO1-deficient MDAMB-231 tumors; assay: NIR imaging of NQO1-deficient tumors in live mice; assay type: in vivo, nude mice; details: one mg/kg intravenously
From the text: as §1, §2

[4] = tested on: TET1, MGMT; assay: Effect of DMG on TET1 and MGMT activities; assay type: cell-based; details: GBM cell lines
From the text: (§3) Synthesis of 2,4-Dimethylene glutaric acid (DMG), an α-ketoglutaric acid (α-KG) mimic for induction of epigenetic modifications: D-2 hydroxyglutarate (D-2HG) effectively replaces the normal metabolite, α-KG in 70% of low-grade pediatric gliomas with IDH mutations. α-KG is a substrate for TET1, TET2 DNA demethylases, and histone demethylases that maintain normal epigenetic homeostasis. D2-HG directly contributes to the CpG-island methylator phenotype (G-CIMP) and MGMT promoter methylation by competing with α-KG and inhibiting the demethylases. As an innovative strategy of understanding the glioma pathology and turning the tide against it, the inventors prepared DMG, a powerful α-KG derivative to replace the natural metabolite in epigenetic demethylase reactions; induction of such therapeutic methylation in non-IDH mutant GBMs was postulated to regress the tumors. […] DMG efficacy in xenografts and MGMT methylation therein are being tested.

[5] = tested on: GBM cell lines; assay: Potentiation of TMZ in DMG-treated cells; assay type: cell-based
From the text: as §3

[6] = tested on: MGMT inactivated cells and xenografts; assay: Antimetabolite cytotoxicity in MGMT inactivated cells and xenografts; assay type: cell-based
From the text: MGMT performs stoichiometric catalysis to remove mutagenic alkyl groups and dies in the process. […] Inhibition of MGMT by siRNA or 06-benzylguanine led to an S-phase block, perturbed DNA synthesis, and re-replication of the genome.

[7] = tested on: DAOY cells; assay: Potentiation of TMZ cytotoxicity by GNQ; assay type: cell-based
From the text: (§4) To further validate the MGMT deficiency, tumor cells exposed to GNQ can be treated with BCNU and the interstrand DNA crosslinking induced by BCNU, which can be quantitated by ethidium bromide fluorescence assay. Thus, it is possible to take advantage of these altered DNA repair pathways to combine GNQ with TMZ and PARP inhibitors and perform antitumor efficacy studies in orthotopic xenografts of pediatric brain cancers.
(§5) FIG. 21A to 21D show the inhibition of MGMT activity (FIG. 21A) and its degradation (FIG. 21B) induced by GNQ in DAOY cells. […] (FIG. 21D) GNQ potentiates the cytotoxicity of TMZ.

[8] = tested on: intracranial DAOY medulloblastoma; assay: Intracranial DAOY medulloblastoma in nude mice treated with GNQ, bioluminescence; assay type: in vivo; details: IP 25 mg/kg/d, 5 d/wk for about 4 weeks
Procedure: Intracranial glioblastoma xenograft development in nude mice: GBM cells stably expressing luciferase and GFP are suspended at 2×10^5 cells/5 μl sterile PBS injected into mouse brains. For developing […], mice are anesthetized and placed on a stereotactic apparatus. For developing breast cancer brain metastases xenografts, brain-seeking breast cancer cells are injected into the left ventricle of the heart of each mouse under anesthesia. Three weeks later the mice are imaged for intracranial Firefly luciferase activity. Mice with intracranial bioluminescence are randomly divided into different groups for drug treatments. Imaging is performed 10 minutes after i.p. injection of D-luciferin (2 mg per animal) with mice lying in the prone position. Besides the bioluminescence studies, the survival of the human glioblastoma cell grafted mice after drug administrations are closely followed to generate the Kaplan-Meir curves.
(FIG. 17A). The generation of ROS by GNQ was assessed by using fluorescent probes DCFDA and DHE (FIG. 17C). GNQ acts as NQO1 substrate in vitro. (FIG. 17B) Reduction pathways and subsequent reactions of GNQ. (FIG. 17C) Intracellular ROS levels were measured using DCFDA and DHE. (FIG. 17D) Anti-oxidants reversed the GNQ induced apoptosis. […] Intracranial DAOY tumors were set up in nude mice and the tumor growth was assessed by quantitative bioluminescence. […]

[9] = Pharmacokinetic analysis of GNQ after IV injections, BBB permeability; assay type: in vivo; details: mouse, brain, normal mice, read-out: accumulation in the brain, % of plasma levels
Procedure: (§6) (FIG. 17A). The generation of ROS by GNQ was assessed by using fluorescent probes DCFDA and DHE (FIG. 17C). GNQ acts as NQO1 substrate in vitro. (FIG. 17B) Reduction pathways and subsequent reactions of GNQ. (FIG. 17C) Intracellular ROS levels were measured using DCFDA and DHE. (FIG. 17D) Anti-oxidants reversed the GNQ induced apoptosis. Antitumor efficacy of GNQ against intracranial DAOY medulloblastoma: The BBB permeability of GNQ was examined by pharmacokinetic analysis after IV injections in normal mice. […] Intracranial DAOY tumors were set up in nude mice and the tumor growth was assessed by quantitative bioluminescence. […] FIG. 18A, 18B show complete suppression of intracranial DAOY medulloblastoma growth by GNQ. GNQ was given IP at 25 mg/kg/d, 5 d/wk for about 4 weeks. […] (FIG. 18D) Ex-vivo bioluminescence from the isolated brains (FIG. 18E) Accumulation of GNQ in the brain when compared to plasma. (FIG. 18F) H&E staining of mouse brain sections showing the elimination of […] by GNQ. (FIG. 18G) Mean tumor volume radiance in the GNQ-treated group was compared with that in the control. Different substitutions (halogens, aryl, alkyl, and alkoxy groups) can be made to GNQ to append alkyl side chains to impart hydrophobicity to prepare BBB penetrating analogs.

[10] = tested on: Normal astrocytes and NQO1-null cells; assay: Cytotoxicity of GNQ against normal and NQO1-null cells; assay type: cell-based
From the text: (§7) (FIG. 15B) Cytotoxicity of GNQ against normal cells astrocytes and primary neurons. (FIG. 15C) Cytotoxicity against NQO1 null cell line MDA-MB-231. (FIG. 15D) Cytotoxicity values against normal and cancer cells in micromoles. […] Normal astrocytes and NQO1-null cells were not sensitive to GNQ.

[11] = target: T2, NQO1 (Homo sapiens, UniProt P15559); assay: NQO1 substrate assay (NADH utilization); assay type: biochemical
Procedure: as §6

[12] = target: T3, MGMT (Homo sapiens, UniProt P16455); assay: MGMT inhibition by GNQ in DAOY cells; assay type: cell-based; set-up: endogenous in cells; host or cells: DAOY
T3 sequence (P16455 1-207): T1 sequence (P16455 1-207)
From the text: as §4, §5

[13] = tested on: brain tumor cells; assay: Cytotoxicity of GNQ against brain tumor cells, NQO1 dependence; assay type: cell-based; details: coincubation with ES936 or dicumarol
From the text: as §7

[14] = tested on: Reactive oxygen species (ROS); assay: Intracellular ROS by GNQ (DCFDA and DHE); assay type: cell-based
Procedure: as §6

[15] = tested on: cancer cell lines; assay: Cell viability, cancer cell lines (NQ-IND); assay type: cell-based
From the text: (§8) A tumor-targeted NIR small-molecule dye called NQ-THR, was made and specifically accumulated in cancer cells for tumor NIR imaging and simultaneously trigger tumoricidal oxidative stress by acting as an NQO1-bioactivatable substrate. This […] fluorophore provides sufficient specificity and imaging guidance to promote tumor-specific cell death, which can be used for the cancer treatment as well. NQ-IND, the precursor of NQ-THR is an NQO1 activated prodrug itself, which undergoes redox-cycling to produce ROS in brain tumor cells. The functional groups on NQ-IND are amenable to designing NQO1-activated imaging and therapeutic compounds. ES936 (FIG. 20A) is a highly specific, potent, mechanism-based NQO1 inhibitor (55). Inspired by the structure of ES936, the inventors prepared a compound NQ-IND (FIG. 20B) by removing the inhibitory nitroaryl group. NQ-IND was tested for its activity against NQO1 inhibition and cell viability. […]. On the other hand, NQ-IND attached with the NIR fluorescent dyes can be used to generate a theranostic fluorescent probe NQ-THR with both imaging and therapeutic capabilities.

[16] = tested on: normal cells; assay: Cell viability, normal cell lines (NQ-IND); assay type: cell-based
From the text: as §8

[17] = target: T2, NQO1; assay: NQO1 activity inhibition; assay type: biochemical
From the text: as §8

[18] = tested on: ROS; assay: Intracellular ROS by NQ-IND (DCF-DA fluorescence); assay type: cell-based
From the text: as §8

[19] = tested on: UW228 cells; assay: Cell cycle analysis (flow cytometry) and apoptosis markers; assay type: cell-based, human; details: 100 μM BCNU alone, 24 hours
Procedure: This was followed by 100 μM BCNU. […] After the treatments, cells were allowed to grow for 24 and 48 hours. At each of these time points cells were harvested and fixed in 70% ethanol. The cells were then washed with PBS and re-suspended in the presence of RNase (1 μg/ml) and propidium iodide (PI, 50 μg/ml) for 30 minutes. Cell cycle histograms were generated using a BD Accuri C6 flow cytometer.

[20] = target: T3, MGMT; assay: Effect of proteasome inhibitor PS-341 on degradation of DSF-modified MGMT in UW228 cells; assay type: cell-based; set-up: endogenous in cells; host or cells: UW228, T98G
From the text: The samples were immunoblotted and probed with MGMT antibodies (right panel). The densitometric quantitation of protein bands on the western blots is shown as a line graph on the left. […] Cell lysates were western blotted for the MGMT protein. […] Kinetics of DNA interstrand crosslinks formed in UW228 cells after treatment with […] BCNU or […] melphalan is shown. […] They were then exposed to BCNU or melphalan. At times specified, the cells were harvested, DNA isolated and the extent of interstrand crosslinking of DNA was determined using the ethidium bromide fluorescence assay. Values are mean+S.D. The results were significant at P<0.05. […] The cells were trypsinized at times indicated and analyzed by flow cytometry.
Since the MGMT inactivated by BG is degraded through ub-proteolysis, it was of interest to investigate the mode of elimination of DSF-modified MGMT protein. Therefore, first, we compared the in vitro degradation of DSF-treated and untreated rMGMT protein in rabbit reticulocyte lysates (RL), which are known to promote the proteasomal degradation. The control and DSF-modified MGMT proteins were incubated with RL in the presence of Mg++, ATP and ubiquitin at 37° C. The reaction mixtures were blotted and probed with MGMT antibodies. […] To show the involvement of the ub-proteolysis in cells a clinically used proteasome inhibitor. […]

T2 sequence (P15559 whole entry): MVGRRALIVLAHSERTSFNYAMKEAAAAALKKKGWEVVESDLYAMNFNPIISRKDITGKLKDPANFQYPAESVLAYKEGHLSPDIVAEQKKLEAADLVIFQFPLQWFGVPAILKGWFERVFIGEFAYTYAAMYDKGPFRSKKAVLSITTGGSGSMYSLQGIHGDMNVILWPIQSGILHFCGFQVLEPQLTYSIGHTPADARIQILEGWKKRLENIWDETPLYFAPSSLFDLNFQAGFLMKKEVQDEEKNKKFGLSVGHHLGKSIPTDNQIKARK

For `CCN1C(=O)C=CC1=O` [NEM, N-ethylmaleimide], the “BG-PEG-biotin labeling of MGMT in cell extracts after drug” value [1] was “prevented the BG-labeling of the protein”.

With `CC1=C(C)C(=O)C(C(C)(C)CC(=O)Nc2ccc(/C=C/C3=CC(=C(C#N)C#N)CC(C)(C)C3)cc2)=C(C)C1=O` [NIR-ASM] the “time to fluorescent signal in tumors” value [2] was at most 5 min and the “fluorescent signal in tumors” value [3] was “totally negative after 3 hours”.

With `C=C(CC(=C)C(=O)O)C(=O)O` [DMG, 2,4-Dimethylene glutaric acid] the “effect on TET1, MGMT activities” value [4] was “curtailed TET1, MGMT activities” and the “potentiation of TMZ” value [5] was 6-8 fold.

For `O=c1[nH]cc(F)c(=O)[nH]1` [5FU], the “increase in cytotoxicity in MGMT inactivated cells and xenografts” value [6] was 10-15 fold.

With `O=C1NC2(c3ccccc31)c1ccccc1C1C(=O)c3cccc(O)c3C(=O)C12` (centres unmarked) [GNQ] the “sensitization to TMZ” value [7] was “sensitized to TMZ”, the “body weight as a surrogate marker for toxicity” value [8] was “No changes in body weight” and the tumor bioluminescence [8] was “complete loss of bioluminescence”. The Kp [9] was at most 0.11, the “sensitivity to GNQ” value [10] was “not sensitive” and the “NADH utilized throughout the assay” value [11] was “greater than 1 equiv. of NADH”. For the same compound, the MGMT inhibition [12] was “remarkably inhibited”, the “effect of NQO1 inhibitors on GNQ cytotoxicity” value [13] was “reversed by coincubation with NQO1 inhibitors ES936 or dicumarol” and the ROS generation [14] was “generates Reactive oxygen species (ROS)”.

For `COC1=CC(=O)c2c(c(CO)cn2C)C1=O` [NQ-IND], the cancer cell proliferation [15] was “inhibit cancer cell proliferation selectively”, the “effect on normal cells” value [16] was “no effect on normal cells” and the “effect on NQO1 activity” value [17] was “did not affect the activity of NQO1”. For the same compound, the “ROS by DCF-DA fluorescence” value [18] was “generate ROS”.

For `COC1=CC(=O)c2c(c(COc3ccc([N+](=O)[O-])cc3)c(C)n2C)C1=O` [ES936], the “effect on NQO1 activity” value [17] was “completely inhibited the NQO1 activity”.

With `O=NN(CCCl)C(=O)NCCCl` [BCNU, 1,3-bis-2-chloroethylnitrosourea] the “G2/M blockade, % of cells” value [19] was 33 % of cells.

In the case of `CC(C)C[C@H](NC(=O)[C@H](Cc1ccccc1)NC(=O)c1cnccn1)B(O)O` [PS341, bortezomib], the “decrease of MGMT degradation” value ([20]; 10 μM PS341 co-incubation with 50 μM DSF for 6 hours) is reported as 20% and the “reduction in the loss of MGMT protein” value ([20]; pretreated 6 hours with 10 μM PS341 followed by 50 μM DSF for 12 hours) is reported as over 50%.
